According to ChEMBL document CHEMBL3407404, “Cyclopentyl-pyrimidine based analogues as novel and potent IGF-1R inhibitor” (Eur J Med Chem, 2015):

Assays:
[1] = molecular target: Insulin-like growth factor 1 receptor (Homo sapiens, UniProt P08069); assay: Inhibition of IGF1R (unknown origin) using poly-G1 as substrate incubated for 10 mins prior to substrate addition measured after 1 hr by time-resolved fluorescence assay
[2] = molecular target: Insulin receptor (Homo sapiens, UniProt P06213); assay: Inhibition of IR (unknown origin) using poly-G1 as substrate incubated for 10 mins prior to substrate addition measured after 1 hr by time-resolved fluorescence assay
Chain of Insulin receptor (P06213 28-758 limits assumed): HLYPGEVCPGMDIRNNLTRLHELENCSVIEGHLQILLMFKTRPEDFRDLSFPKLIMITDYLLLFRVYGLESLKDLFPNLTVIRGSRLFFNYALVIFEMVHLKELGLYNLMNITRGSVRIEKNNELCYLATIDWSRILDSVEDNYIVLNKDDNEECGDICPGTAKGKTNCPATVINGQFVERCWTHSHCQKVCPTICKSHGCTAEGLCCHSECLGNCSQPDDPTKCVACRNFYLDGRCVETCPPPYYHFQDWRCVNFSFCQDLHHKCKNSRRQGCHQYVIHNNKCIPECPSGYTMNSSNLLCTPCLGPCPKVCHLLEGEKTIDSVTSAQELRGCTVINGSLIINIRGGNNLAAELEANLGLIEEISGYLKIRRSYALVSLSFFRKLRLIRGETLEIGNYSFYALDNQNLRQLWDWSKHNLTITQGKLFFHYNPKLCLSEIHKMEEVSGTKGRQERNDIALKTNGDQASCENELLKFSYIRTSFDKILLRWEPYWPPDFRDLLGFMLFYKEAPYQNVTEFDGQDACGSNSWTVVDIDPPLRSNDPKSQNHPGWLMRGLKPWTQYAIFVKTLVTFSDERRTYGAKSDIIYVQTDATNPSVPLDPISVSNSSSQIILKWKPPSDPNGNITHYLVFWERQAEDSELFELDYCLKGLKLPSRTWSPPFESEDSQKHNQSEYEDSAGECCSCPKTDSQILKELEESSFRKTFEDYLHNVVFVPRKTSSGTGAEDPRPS
Chain of Insulin receptor (P06213 763-1382 limits assumed): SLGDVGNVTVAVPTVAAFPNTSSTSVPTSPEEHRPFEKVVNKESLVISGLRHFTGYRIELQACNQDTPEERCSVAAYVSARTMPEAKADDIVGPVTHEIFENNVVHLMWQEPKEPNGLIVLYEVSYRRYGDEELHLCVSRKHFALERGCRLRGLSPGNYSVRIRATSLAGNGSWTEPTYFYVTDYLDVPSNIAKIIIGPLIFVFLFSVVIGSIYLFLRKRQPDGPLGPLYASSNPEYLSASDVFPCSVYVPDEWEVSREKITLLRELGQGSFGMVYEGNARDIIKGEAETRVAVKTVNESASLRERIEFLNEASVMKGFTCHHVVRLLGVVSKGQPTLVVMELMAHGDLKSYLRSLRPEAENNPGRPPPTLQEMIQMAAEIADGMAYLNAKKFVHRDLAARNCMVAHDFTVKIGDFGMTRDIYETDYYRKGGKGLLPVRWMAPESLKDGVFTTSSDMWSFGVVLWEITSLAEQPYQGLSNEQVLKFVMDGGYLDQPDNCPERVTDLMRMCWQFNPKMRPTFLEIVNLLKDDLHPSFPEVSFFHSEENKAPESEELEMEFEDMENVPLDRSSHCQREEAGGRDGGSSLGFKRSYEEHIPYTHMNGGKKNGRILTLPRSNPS

[3] = Growth inhibition of human H460 cells after 48 hrs by propidium iodide staining-based fluorescence assay; format: functional, cell-based; details: NCI-H460, 48 h
[4] = test system: A-431; assay: Growth inhibition of human A431 cells after 48 hrs by propidium iodide staining-based fluorescence assay; format: functional, cell-based; details: A-431, 48 h
[5] = Growth inhibition of human HCT116 cells after 48 hrs by propidium iodide staining-based fluorescence assay; format: functional, cell-based; details: HCT-116, 48 h
[6] = Growth inhibition of human COLO205 cells after 48 hrs by propidium iodide staining-based fluorescence assay; format: functional, cell-based; details: COLO 205, 48 h
[7] = test system: MDA-MB-231; assay: Growth inhibition of human MDA-MB-231 cells after 48 hrs by propidium iodide staining-based fluorescence assay; format: functional, cell-based; details: MDA-MB-231, 48 h
[8] = test system: MCF7; assay: Growth inhibition of human MCF7 cells after 48 hrs by propidium iodide staining-based fluorescence assay; format: functional, cell-based; details: MCF7, 48 h
[9] = test system: NCI-H1975; assay: Growth inhibition of human NCI-H1975 cells after 48 hrs by propidium iodide staining-based fluorescence assay; format: functional, cell-based; details: NCI-H1975, 48 h
[10] = Half life in Sprague-Dawley rat at 10 mg/kg, po; format: ADME, organism-based; design: dose 10 mg/kg, route oral; details: in vivo
[11] = Half life in Sprague-Dawley rat at 2 mg/kg, iv; format: ADME, organism-based; design: dose 2 mg/kg, route intravenous; details: in vivo
[12] = Initial concentration in Sprague-Dawley rat at 2 mg/kg, iv; format: ADME, organism-based; design: dose 2 mg/kg, route intravenous; details: in vivo
[13] = Clearance in Sprague-Dawley rat at 2 mg/kg, iv; format: ADME, organism-based; design: dose 2 mg/kg, route intravenous; details: in vivo
[14] = Volume of distribution at steady state in Sprague-Dawley rat at 2 mg/kg, iv; format: ADME, organism-based; design: dose 2 mg/kg, route intravenous; details: in vivo, read-out: Vdss
[15] = Oral bioavailability in Sprague-Dawley rat at 10 mg/kg; format: ADME, organism-based; details: in vivo

Chain of Insulin-like growth factor 1 receptor (P08069 31-736 limits assumed): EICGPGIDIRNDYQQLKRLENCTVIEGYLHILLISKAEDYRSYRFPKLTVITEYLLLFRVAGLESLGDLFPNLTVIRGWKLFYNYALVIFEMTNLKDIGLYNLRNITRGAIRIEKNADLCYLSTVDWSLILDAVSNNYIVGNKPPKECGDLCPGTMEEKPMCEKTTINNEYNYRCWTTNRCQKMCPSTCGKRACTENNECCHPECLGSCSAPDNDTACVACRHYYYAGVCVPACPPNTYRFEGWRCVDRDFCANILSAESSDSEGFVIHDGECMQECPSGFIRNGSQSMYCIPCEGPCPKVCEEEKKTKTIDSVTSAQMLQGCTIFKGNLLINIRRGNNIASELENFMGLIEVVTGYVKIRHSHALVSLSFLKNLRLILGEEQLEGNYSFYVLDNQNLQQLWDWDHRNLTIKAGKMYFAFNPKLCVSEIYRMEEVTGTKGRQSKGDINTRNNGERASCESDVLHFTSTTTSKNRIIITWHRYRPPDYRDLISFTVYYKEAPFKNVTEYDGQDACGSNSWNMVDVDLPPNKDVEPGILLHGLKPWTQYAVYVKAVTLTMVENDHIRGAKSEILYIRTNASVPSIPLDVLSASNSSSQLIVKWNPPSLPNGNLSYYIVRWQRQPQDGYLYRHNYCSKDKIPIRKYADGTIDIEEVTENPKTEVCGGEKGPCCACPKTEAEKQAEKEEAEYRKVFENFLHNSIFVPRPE
Chain of Insulin-like growth factor 1 receptor (P08069 741-1367 limits assumed): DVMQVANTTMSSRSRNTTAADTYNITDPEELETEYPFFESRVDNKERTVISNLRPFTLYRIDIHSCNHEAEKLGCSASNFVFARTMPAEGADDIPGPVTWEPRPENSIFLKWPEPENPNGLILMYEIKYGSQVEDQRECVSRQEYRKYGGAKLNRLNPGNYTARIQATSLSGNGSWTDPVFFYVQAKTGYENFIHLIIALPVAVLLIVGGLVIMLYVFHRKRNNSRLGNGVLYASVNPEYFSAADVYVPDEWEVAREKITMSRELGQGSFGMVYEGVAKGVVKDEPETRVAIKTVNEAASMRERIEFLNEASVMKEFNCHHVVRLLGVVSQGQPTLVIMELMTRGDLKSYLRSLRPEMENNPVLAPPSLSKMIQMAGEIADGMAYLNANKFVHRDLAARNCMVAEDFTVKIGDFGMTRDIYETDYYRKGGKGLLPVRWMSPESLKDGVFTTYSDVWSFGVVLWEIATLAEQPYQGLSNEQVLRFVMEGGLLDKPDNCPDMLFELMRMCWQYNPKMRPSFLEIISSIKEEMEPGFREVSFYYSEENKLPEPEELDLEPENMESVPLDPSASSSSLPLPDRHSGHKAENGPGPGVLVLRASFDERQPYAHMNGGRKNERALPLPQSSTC

SMILES	IC50 ([1]; read-out: IC50) [µM]	also measured
Cc1cc(Nc2nc(N3CCC(C)CC3)nc3c2CCC3)n[nH]1	–	IC50 [1]: Not Active
CN(C)CCN(C)c1nc2c(c(Nc3cc(C4CC4)[nH]n3)n1)CCC2	> 1	–
c1c(Nc2nc(N3CCNCC3)nc3c2CCC3)n[nH]c1C1CC1	> 1	–
CCN(CC)C(=O)C1CCCN(c2nc3c(c(Nc4cc(C5CC5)[nH]n4)n2)CCC3)C1 (centres undefined)	0.184	–
CC1(C)CCN(c2nc3c(c(Nc4cc(C5CC5)[nH]n4)n2)CCC3)CC1	0.203	–
O=C(O)C1CCN(c2nc3c(c(Nc4cc(C5CC5)[nH]n4)n2)CCC3)CC1	> 1	–
c1ccc(CNc2nc3c(c(Nc4cc(C5CC5)[nH]n4)n2)CCC3)cc1	0.267	–
Cc1ccc(CNc2nc3c(c(Nc4cc(C5CC5)[nH]n4)n2)CCC3)cc1	0.149	–
CC1CCN(c2nc3c(c(Nc4cc(-c5ccccc5)[nH]n4)n2)CCC3)CC1	> 1	–
c1ccc(-c2cc(Nc3nc(N4CCCCCC4)nc4c3CCC4)n[nH]2)cc1	> 1	–
Cc1cc(Nc2nc(N3CCCCC3)nc3c2CCC3)n[nH]1	0.442	–
Cc1cc(Nc2nc(N3CCCCCC3)nc3c2CCC3)n[nH]1	2	–
CCOC(=O)C1CCCN(c2nc3c(c(Nc4cc(C)[nH]n4)n2)CCC3)C1 (centres undefined)	0.97	–
CC(C)(C)c1cc(Nc2nc(N3CCCCC3)nc3c2CCC3)n[nH]1	0.251	–
CC1CCN(c2nc3c(c(Nc4cc(C(C)(C)C)[nH]n4)n2)CCC3)CC1	0.3	–
CC(C)(C)c1cc(Nc2nc(N3CCCCCC3)nc3c2CCC3)n[nH]1	0.568	–
CC1CCN(c2nc(Nc3cc(C4CC4)[nH]n3)c3c(n2)C2CCC3C2)CC1 (centres undefined)	1.19	–
CC1CCN(c2nc(Nc3cc(C4CC4)[nH]n3)c3c(n2)C(F)(F)CC3)CC1	0.786	–
CC1CCN(c2nc(Nc3cc(C4CC4)[nH]n3)c3c(n2)C(C)(C)CC3)CC1	1.5	–
CC1CCN(c2nc(Nc3cc(C4CC4)[nH]n3)c3c(n2)C2(CCCC2)CC3)CC1	2.8	–

Second part, led by results:

IC50 ([1]; read-out: IC50) [µM]	SMILES	also measured
0.032	c1c(Nc2nc(N3CCCCC3)nc3c2CCC3)n[nH]c1C1CC1	–
0.09	OCC1CCCN(c2nc3c(c(Nc4cc(C5CC5)[nH]n4)n2)CCC3)C1 (centres undefined)	–
0.02	CC1CCN(c2nc3c(c(Nc4cc(C5CC5)[nH]n4)n2)CCC3)CC1	IC50 [2]: 0.11 µM; IC50 [3]: 0.18 µM; IC50 [4]: 0.34 µM; IC50 [5]: 0.35 µM; IC50 [6]: 2.19 µM; IC50 [7]: 0.7 µM; IC50 [8]: 1.67 µM; IC50 [9]: 3 µM; half-life [10]: 52.2 min; half-life [11]: 51 min; C0 [12]: 1050 ng/mL; clearance [13]: 59.1 mL/min/kg; Vd [14]: 4.37 L/kg; bioavailability [15]: 11.3%
0.035	CCOC(=O)C1CCN(c2nc3c(c(Nc4cc(C5CC5)[nH]n4)n2)CCC3)CC1	–
0.124	N#CC1CCN(c2nc3c(c(Nc4cc(C5CC5)[nH]n4)n2)CCC3)CC1	–
0.01	c1c(Nc2nc(N3CCCCCC3)nc3c2CCC3)n[nH]c1C1CC1	–
0.058	c1c(Nc2nc(N3CCCCCCC3)nc3c2CCC3)n[nH]c1C1CC1	–
0.041	c1c(Nc2nc(N3CC4CCC3C4)nc3c2CCC3)n[nH]c1C1CC1 (centres undefined)	–
0.097	c1ccc(-c2nc3c(c(Nc4cc(C5CC5)[nH]n4)n2)CCC3)cc1	–
0.108	CCOC(=O)C1CCCN(c2nc3c(c(Nc4cc(C(C)(C)C)[nH]n4)n2)CCC3)C1 (centres undefined)	–
